Measured values published in patent publication US7691572B2, “Method and kit for detecting resistance to antiviral drugs” (priority 1998, dated 2010).

How the values were obtained:
Assay type in all cases: biochemical
[1] = tested on: HIV-1 reverse transcriptase; assay: Amp-RT assay, inhibition by 3TC-TP, reference viruses
From the text: (§1) The phenotypic assay used in this example was based on the analysis of the susceptibility of HIV-1 reverse transcriptase activity from plasma to inhibition by 3TC-TP.
The assay detects reverse transcriptase activity by using a nonretroviral heteropolymeric RNA template derived from the encephalomyocarditis virus (EMCV) genome, and a complementary EMCV-specific DNA oligoprimer. The RT-generated EMCV cDNA is detected by PCR amplification and internal oligoprobing of the PCR product with an EMCV-specific probe.
(§2) Amp-RT detects reverse transcriptase activity by using a heterologous RNA template derived from the encephalomyocarditis virus (EMCV), a complementary DNA oligoprimer, and PCR amplification of reverse transcriptase-generated EMCV cDNA. […] To determine the susceptibility of the reverse transcriptase to 3TC-TP, an additional Amp-RT reaction was made in the presence of 3TC-TP, with concentrations of 3TC-TP ranging from 0.1 to 10 μM. […] PCR amplification of reverse transcriptase products was made as follows after the addition of 200 μM of each dNTP. A volume of 50 μl of PCR buffer containing 2.5 units of Taq polymerase, 100 ng of the sense primer EMCF1, and 200 μM of each dNTP was added to the reverse transcriptase mixture.
Wild type HIV-1SUM9, and multiple dideoxy nucleoside-resistant HIV-1SUM8 (Q151M mutation), HIV-1SUM12 (F77L/F116Y/Q151M) and HIV-1SUM13 (A62V/V751/F77L/F116Y/Q151M) MICs were provided by Dr. Mitsuya as described by Shirasaka et al., Proc. Natl. Acad. Sci. USA 92: 2398-2402 (1995). The synthesis and preparation of 3TC-TP were carried out as described by Schinazi et al., Antimicrob. Agents Chemother. 36: 2423-2431 (1992). The crude 3TC-5-TP was purified by FPLC using a HiLoad 26/10Q Sepharose Fast Flow™ Pharmacia chromatography column (Pharmacia, Piscataway, N.J.) and gradient of TEAE buffer (pH 7.0). The compound was characterized by UV spectroscopy, proton and phosphorous NMR, mass spectroscopy and HPLC.
Inhibition of reverse transcriptase by 3TC-TP results from the ability of 3TC-TP to act as a competitive inhibitor for 2′-deoxycytidine-5′-triphosphate (dCTP) and chain terminator as described by Arts and Wainberg, Antimicrob. Agents Chemother. 40: 527-540 (1996). To determine the optimal ratio of 3TC-TP and dCTP needed to inhibit wild type HIV-1 reverse transcriptase, but not 3TC-resistant reverse transcriptase, reverse transcriptase were tested from a wild type (xxBRUpitt) and a 3TC-resistant (M184Vpitt) HIV-1 in the presence of increasing concentrations of 3TC-TP (from 0.1 to 10 μM) and a fixed concentration of dCTP (5 μM).

[2] = tested on: plasma HIV-1 reverse transcriptase; assay: Amp-RT assay, inhibition by 3TC-TP, plasma samples of patients; details: for Inhibition of RT(%): 5 uM 3TC-TP
Method: as §1
For culture supernatant, 10 μl were directly used for the reverse transcriptase reaction. The analysis of phenotypic resistance in plasma samples was made in plasma-free virus pellets as described in the protocol set forth in FIG. 1B.
as §2
A total of 30 EDTA-plasma samples from 15 HIV-1-infected patients from the Veteran Administration Medical Center, Decatur, Ga., were studied. The samples were collected from patients before and during anti-retroviral therapy with 3TC. The Amp-RT-based phenotypic assay was done under code with respect to date of serial bleed and reverse transcriptase genotype. One plasma specimen from a blood donor who tested antibody negative for HIV-1/2, HTLV-I/II was used as an assay negative control.

HIV-1 RT = HIV-1 RT (Human immunodeficiency virus type 1 group M subtype B, UniProt P04585); assay: Amp-RT assay, AZT-TP and other NRTI-TPs, reference viruses; parameters: The susceptibility of HIV-1 RT activity from viral isolates or plasma samples; made in house
[3] = 5 μM 3TC-TP, wild type HIV-1, 10^−6 units of RT activity
[4] = 5 μM 3TC-TP, pretreatment samples (n=12)
[5] = sample 1E, 12 weeks, AZT/3TC, V/M184
[6] = sample 1F, 18 weeks, AZT/3TC, V184
[7] = sample 2F, 12 weeks, AZT/3TC, V184
[8] = sample 3F, 12 weeks, AZT/3TC, M/V184
[9] = sample 3G, 21 weeks, AZT/3TC, V184
[10] = sample 6B, 12 weeks, AZT/3TC, V184
[11] = sample 8B, 8 weeks, AZT/3TC, V184
[12] = sample 9F, 12 weeks, AZT/3TC, V184
[13] = sample 10A, 4 weeks, AZT/3TC, M184
[14] = sample 10C, 12 weeks, AZT/3TC, M/V184
[15] = sample 10G, 52 weeks, AZT/3TC, V184
[16] = sample 11A, 12 weeks, AZT/3TC, V/M184
[17] = sample 11C, 36 weeks, AZT/3TC, V184
[18] = sample 12E, 28 weeks, AZT/3TC, V184
[19] = sample 13A, Pre, d4T, M184, N69, R70
[20] = sample 13F, 60 weeks, d4T/3TC/IND, V184
[21] = sample 14A, 1 week, AZT/3TC, M184, D69
[22] = sample 14F, 44 weeks, IND/3TC, V184
[23] = sample 15A, Pre, AZT, M184, D69
[24] = sample 15D, 40 weeks, AZT/3TC/IND, V184
[25] = 5 μM 3TC-TP, samples with 184V only
[26] = 5 μM 3TC-TP, samples with mixtures of wild type and resistant genotypes

Nc1ccn([C@@H]2CS[C@H](COP(=O)(O)OP(=O)(O)OP(=O)(O)O)O2)c(=O)n1 [3TC-TP, 3TC-5′-triphosphate]
inhibition of reverse transcriptase ([1]; 5 μM 3TC-TP, 3TC-resistant HIV-1 (M184Vpitt), high or low input of RT): No significant inhibition
inhibition of RT activity ([1]; 5 μM 3TC-TP, mixture with 25% 3TC-resistant (M184Vpitt) virus in wild type xxBRUpitt): 87%
inhibition of RT activity ([1]; 5 μM 3TC-TP, mixture with 75% 3TC-resistant (M184Vpitt) virus in wild type xxBRUpitt): 26%
drop in Amp-RT virus load [1, 3]: 2.35 log10
residual reverse transcriptase activity (of control without 3TC-TP) [1, 3]: 0.4%
inhibition of reverse transcriptase ([1]; 5 μM 3TC-TP, wild type xxBRUpitt, 10^−7 and 10^−8 units of RT activity): complete inhibition
IC90 relative to reference viruses ([1]; HIV-1SUM8 (Q151M)): approximately two-fold higher
increase in IC50 compared to wild type virus ([1]; HIV-1SUM12, three MD resistance mutations (F77L/F116Y/Q151M)): six-
increase in IC50 compared to wild type virus ([1]; HIV-1SUM13, all five MD resistance mutations): eight-fold
mean reverse transcriptase inhibition [2, 4]: 98.7%
median reverse transcriptase inhibition [2, 4]: 99.8%
Inhibition of RT(%) ([2]; sample 1B, Pre, AZT/ddC, M184): 100%
Inhibition of RT(%) [2, 5]: 75.6%
Inhibition of RT(%) [2, 6]: 75.9%
Inhibition of RT(%) ([2]; sample 2B, Pre, AZT/ddC, M184): 99.7%
Inhibition of RT(%) [2, 7]: 68%
Inhibition of RT(%) ([2]; sample 3B, Pre, AZT, M184): 99.4%
Inhibition of RT(%) [2, 8]: 92.3%
Inhibition of RT(%) [2, 9]: 0%
Inhibition of RT(%) ([2]; sample 4A, Pre, AZT, M184): 99.9%
Inhibition of RT(%) ([2]; sample 5A, Pre, AZT, M184): 100%
Inhibition of RT(%) ([2]; sample 6A, Pre, None, M184): 99.9%
Inhibition of RT(%) [2, 10]: 34.7%
Inhibition of RT(%) ([2]; sample 7A, Pre, None, M/I184): 100%
Inhibition of RT(%) ([2]; sample 8A, Pre, AZT, M184): 99.9%
Inhibition of RT(%) [2, 11]: 15%
Inhibition of RT(%) ([2]; sample 9A, Pre, d4T, M184): 97.8%
Inhibition of RT(%) [2, 12]: 47%
Inhibition of RT(%) [2, 13]: 87.8%
Inhibition of RT(%) [2, 14]: 0%
Inhibition of RT(%) [2, 15]: 0%
Inhibition of RT(%) [2, 16]: 29.1%
Inhibition of RT(%) [2, 17]: 58.5%
Inhibition of RT(%) ([2]; sample 12A, Pre, AZT, M184): 96.3%
Inhibition of RT(%) [2, 18]: 70%
Inhibition of RT(%) [2, 19]: 95.9%
Inhibition of RT(%) [2, 20]: 0%
Inhibition of RT(%) [2, 21]: 94.7%
Inhibition of RT(%) [2, 22]: 0%
Inhibition of RT(%) [2, 23]: 95.5%
Inhibition of RT(%) [2, 24]: 0%
reverse transcriptase inhibition values ([2]; 5 μM 3TC-TP, samples after 1 to 60 weeks of therapy with 3TC (n=18)): less than 95%
mean inhibition [2, 25]: 30.8%
median inhibition [2, 25]: 24.9%
mean inhibition [2, 26]: 49.3%
median inhibition [2, 26]: 52.4%
RT activity With 3TC-TP (5 uM) [2, 5]: 5.1 × 10^−7 units/ml
RT activity With 3TC-TP (5 uM) [2, 6]: 3.3 × 10^−8 units/ml
RT activity With 3TC-TP (5 uM) ([2]; sample 2B, Pre, AZT/ddC, M184): 6.3 × 10^−9 units/ml
RT activity With 3TC-TP (5 uM) [2, 7]: 4.7 × 10^−7 units/ml
RT activity With 3TC-TP (5 uM) ([2]; sample 3B, Pre, AZT, M184): 1.7 × 10^−8 units/ml
RT activity With 3TC-TP (5 uM) [2, 8]: 1.2 × 10^−9 units/ml
RT activity With 3TC-TP (5 uM) [2, 9]: 1.0 × 10^−8 units/ml
RT activity With 3TC-TP (5 uM) ([2]; sample 4A, Pre, AZT, M184): 1.2 × 10^−10 units/ml
RT activity With 3TC-TP (5 uM) ([2]; sample 6A, Pre, None, M184): 3.6 × 10^−8 units/ml
RT activity With 3TC-TP (5 uM) [2, 10]: 1.5 × 10^−5 units/ml
RT activity With 3TC-TP (5 uM) ([2]; sample 8A, Pre, AZT, M184): 5.7 × 10^−8 units/ml
RT activity With 3TC-TP (5 uM) [2, 11]: 4.3 × 10^−5 units/ml
RT activity With 3TC-TP (5 uM) ([2]; sample 9A, Pre, d4T, M184): 6.3 × 10^−8 units/ml
RT activity With 3TC-TP (5 uM) [2, 12]: 1.1 × 10^−6 units/ml
RT activity With 3TC-TP (5 uM) [2, 13]: 9.1 × 10^−6 units/ml
RT activity With 3TC-TP (5 uM) [2, 14]: 1.9 × 10^−7 units/ml
RT activity With 3TC-TP (5 uM) [2, 15]: 3.5 × 10^−5 units/ml
RT activity With 3TC-TP (5 uM) [2, 16]: 1.3 × 10^−7 units/ml
RT activity With 3TC-TP (5 uM) [2, 17]: 7.0 × 10^−8 units/ml
RT activity With 3TC-TP (5 uM) ([2]; sample 12A, Pre, AZT, M184): 9.2 × 10^−7 units/ml
RT activity With 3TC-TP (5 uM) [2, 18]: 5.1 × 10^−7 units/ml
RT activity With 3TC-TP (5 uM) [2, 19]: 6.2 × 10^−8 units/ml
RT activity With 3TC-TP (5 uM) [2, 20]: 7.4 × 10^−5 units/ml
RT activity With 3TC-TP (5 uM) [2, 21]: 1.3 × 10^−8 units/ml
RT activity With 3TC-TP (5 uM) [2, 22]: 5.1 × 10^−9 units/ml
RT activity With 3TC-TP (5 uM) [2, 23]: 4.0 × 10^−6 units/ml
RT activity With 3TC-TP (5 uM) [2, 24]: 2.4 × 10^−10 units/ml

Cc1cn([C@H]2C[C@H](N=[N+]=[N-])[C@@H](COP(=O)(O)OP(=O)(O)OP(=O)(O)O)O2)c(=O)[nH]c1=O [AZT-TP, AZT-triphosphate]
% inhibition (SEM) (HIV-1 RT; 1 μM AZT-TP, HIV-1HXB2, WT): 98 (±2) %
IC50 (HIV-1 RT; WT HIV-1HXB2): 500 nM
IC90 (HIV-1 RT; WT HIV-1HXB2): 900 nM
